The text below walks through data of patent US20080038728A1, “Quadruple Transformed Cell Line Useful for the Identification of Transport Inhibitors” (priority 2004, published 2008).

One series concerns the target T1, OATP1B3 (Homo sapiens, UniProt Q9NPD5).
T1 sequence (Q9NPD5 1-702): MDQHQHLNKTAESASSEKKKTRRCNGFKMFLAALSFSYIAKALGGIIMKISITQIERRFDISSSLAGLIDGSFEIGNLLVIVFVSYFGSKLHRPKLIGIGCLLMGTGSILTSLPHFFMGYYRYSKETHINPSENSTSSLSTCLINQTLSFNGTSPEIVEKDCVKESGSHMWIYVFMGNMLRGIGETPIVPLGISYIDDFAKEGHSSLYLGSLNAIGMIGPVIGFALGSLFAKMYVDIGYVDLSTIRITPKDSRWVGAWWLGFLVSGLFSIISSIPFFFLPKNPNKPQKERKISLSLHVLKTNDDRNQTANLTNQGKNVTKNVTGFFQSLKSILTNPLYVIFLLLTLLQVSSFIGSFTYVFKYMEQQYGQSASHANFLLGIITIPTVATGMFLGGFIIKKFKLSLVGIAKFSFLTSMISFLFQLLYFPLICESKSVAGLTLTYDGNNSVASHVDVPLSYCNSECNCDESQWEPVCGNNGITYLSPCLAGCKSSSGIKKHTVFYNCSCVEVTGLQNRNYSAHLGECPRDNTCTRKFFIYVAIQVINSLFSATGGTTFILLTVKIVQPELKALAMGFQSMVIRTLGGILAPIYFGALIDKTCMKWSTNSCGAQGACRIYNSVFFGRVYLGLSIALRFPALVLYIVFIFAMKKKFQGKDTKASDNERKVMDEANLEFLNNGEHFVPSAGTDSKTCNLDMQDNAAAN
Description: Uptake (intracellular accumulation) kinetics in ABCC2/OATP1B3 double-transfected MDCKII cells. The format is in vitro ADME. More on the design: expressed in transfected cells; host or cells: MDCKII (canine kidney), co-expressing ABCC2. The procedure: (§1) (a) MDCKII cells were grown on ThinCerts (24-mm diameter, pore size 0.4 μm, pore density 1×10^8 per cm^2) and induced with butyrate as mentioned above. The cells were washed in prewarmed (37° C.) transport buffer (142 mM NaCl, 5 mM KCl, 1 mM KH2PO4, 1.2 mM MgSO4, 1.5 mM CaCl2, 5 mM glucose, and 12.5 mM HEPES, pH 7.3). The ^3H-labeled substrate was dissolved in transport buffer and added either to the apical or to the basolateral compartment at the concentration indicated. After incubation at 37° C., the radioactivity in the opposite compartment was measured by sampling aliquots from the apical or basolateral compartment. Cells were washed 2 times with ice-cold transport buffer containing 0.5% bovine serum albumin and 3 times in ice-cold transport buffer. Intracellular accumulation of radioactivity was calculated by lyzing the cells with 0.2% sodium dodecyl sulfate (SDS) and measuring the radioactivity in the lysate.

Another series has as its target T2, OATP2B1 (Homo sapiens, UniProt O94956).
T2 sequence (O94956 1-709): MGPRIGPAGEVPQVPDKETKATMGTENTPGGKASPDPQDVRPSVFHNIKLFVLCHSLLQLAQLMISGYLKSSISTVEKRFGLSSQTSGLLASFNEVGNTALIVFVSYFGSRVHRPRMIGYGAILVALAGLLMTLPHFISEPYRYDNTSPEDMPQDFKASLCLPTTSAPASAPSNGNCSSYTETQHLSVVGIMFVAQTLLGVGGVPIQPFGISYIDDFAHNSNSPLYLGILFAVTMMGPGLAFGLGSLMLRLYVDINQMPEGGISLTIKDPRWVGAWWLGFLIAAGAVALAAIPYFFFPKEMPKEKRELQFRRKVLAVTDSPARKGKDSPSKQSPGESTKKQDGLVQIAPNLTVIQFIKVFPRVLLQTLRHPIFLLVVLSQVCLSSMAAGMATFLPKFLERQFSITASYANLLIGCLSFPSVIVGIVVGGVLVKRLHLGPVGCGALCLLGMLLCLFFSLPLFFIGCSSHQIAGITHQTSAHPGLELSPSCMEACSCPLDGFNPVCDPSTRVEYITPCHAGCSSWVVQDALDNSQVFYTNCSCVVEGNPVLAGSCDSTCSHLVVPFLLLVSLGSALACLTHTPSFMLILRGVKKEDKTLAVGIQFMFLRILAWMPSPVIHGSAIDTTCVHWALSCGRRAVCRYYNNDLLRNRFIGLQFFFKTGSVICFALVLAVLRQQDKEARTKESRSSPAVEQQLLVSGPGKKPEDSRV
Description: Uptake (intracellular accumulation) kinetics in ABCC2/OATP2B1 double-transfected MDCKII cells. The format is in vitro ADME. More on the design: expressed in transfected cells; host or cells: MDCKII (canine kidney) ABCC2 single-transfectant, further transfected with pcDNA3.1/Hygro(-)-OATP2B1. The conditions noted are these: cell line ABCC2-OATP2B1; intracellular accumulation of 3H-labeled substrate. As for the experimental part:
as §1, with “The cells were washed in prewarmed (37° C.) transport buffer (142 mM NaCl, 5 mM KCl, 1 mM KH2PO4, 1.2 mM MgSO4, 1.5 mM CaCl2, 5 mM glucose, and 12.5 mM HEPES, pH 7.3).” left out

Structures are written as SMILES.

For the compound `O=C1OC(c2ccc(O)c(S(=O)(=O)O)c2)(c2ccc(O)c(S(=O)(=O)O)c2)c2c(Br)c(Br)c(Br)c(Br)c21` [Bromosulfophthalein], the Vmax was 82.7 ± 4.0 pmol · mg protein^−1 · min^−1 on OATP1B3 (cell line ABCC2-OATP1B3, intracellular accumulation of 3H-labeled substrate) and 52.8 ± 8.6 pmol · mg protein^−1 · min^−1 on OATP2B1. Besides, the Km (commonly the substrate concentration at which the rate is half of its maximum) at 5 min on OATP1B3 (human, pH 7.3) came out at 2.2 µM.
